Experiment [1] is filed under the species Homo sapiens. Kind of experiment: Binding affinity to human His6-tagged 14-3-3 protein sigma C17 deletion mutant expressed in Escherichia coli BL21 (DE3) at 500 uM by WaterLOGSY NMR analysis.
Experiment [2] is filed under the species Homo sapiens. Briefly: Binding affinity to 15N2H labelled human 14-3-3 protein sigma C17 deletion mutant at dimer interface assessed as chemical shift perturbations in resonances at 2000 uM by 1H-15N TROSY-HSQC 2D NMR analysis.
The species named for experiment [3] is Homo sapiens. Briefly: Binding affinity to 15N2H labelled human 14-3-3 protein sigma C17 deletion mutant at top of helices alphaH and alphaI assessed as chemical shift perturbations in resonances at 2000 uM by 1H-15N TROSY-HSQC 2D NMR analysis.

Active and inactive are the calls of the source. The calls are words filed in the database; no cut-off is given here.

With `NC(=O)c1cc(Cl)cc(Cl)c1O`, the result in the experiment listed under Homo sapiens [1] and in the experiment listed under Homo sapiens [2] was Active.

For `CC12CC3(C)CC(C)(C1)CC(C(=O)O)(C2)C3`, the outcome in the experiment listed under Homo sapiens [1] and in the experiment filed under Homo sapiens [3] was Active.

On to `Cc1ccc(B(O)O)cc1Cl`, for which the outcome in the experiment filed under Homo sapiens [1] and in the experiment filed under Homo sapiens [3] was Active.

The record behind these values is ChEMBL document CHEMBL4373661, “Set-up and screening of a fragment library targeting the 14-3-3 protein interface” (Medchemcomm, 2019).
